Data from ChEMBL document CHEMBL3044798, “Nitrogen concentration and application timing affect imazamox efficacy in winter wheat” (Crop Prot, 2009).
The source made the active and inactive calls.

Key:
Assay type in all cases: functional, organism-based
[1] = system: Secale cereale; test: Herbicidal activity against feral Secale cereale (rye) treated as spring post-emergence application at winter wheat-growing season in presence of urea ammonium nitrate
[2] = system: Secale cereale; test: Herbicidal activity against feral Secale cereale (rye) treated as fall post-emergence application at winter wheat-growing season in presence of urea ammonium nitrate
[3] = system: Aegilops cylindrica; test: Herbicidal activity against Aegilops cylindrica treated as spring post-emergence application at winter wheat-growing season relative to urea ammonium nitrate
[4] = system: Aegilops cylindrica; test: Herbicidal activity against Aegilops cylindrica treated as fall post-emergence application at winter wheat-growing season relative to urea ammonium nitrate

Measured: Activity

COCc1cnc(C2=NC(C)(C(C)C)C(=O)N2)c(C(=O)O)c1 (centres undefined)
active: all assays above
